Drawing on ChEMBL document CHEMBL1131651, “Discovery of LB30057, a benzamidrazone-based selective oral thrombin inhibitor” (Bioorg Med Chem Lett, 1998), this text covers Ki, half-life and bioavailability for 4 compounds.

In data set [1] the target is Prothrombin (Bos taurus, UniProt P00735).
Description: Compound was tested for inhibitory activity against bovine thrombin
The target in data set [2] is Prothrombin (Homo sapiens, UniProt P00734). The data set can be described thus: Compound was tested for inhibitory activity against human thrombin.
Another data set deals with Coagulation factor X (Homo sapiens, UniProt P00742). Nature of the data set: The compound was tested for inhibitory activity against Coagulation factor X.
Data set [3] addresses Tissue-type plasminogen activator (Homo sapiens, UniProt P00750). The data set can be described thus: The compound was tested for inhibitory activity against tissue plasminogen activator.
A short description of data set [4]: Half life was evaluated in dog. The data set is classed as ADME, organism-based, Canis lupus familiaris. Conditions: in vivo.
A further data set concerns the target Plasminogen (Homo sapiens, UniProt P00747). The data set can be described thus: The compound was tested for inhibitory activity against human plasmin.
The nature of data set [5]: Compound was tested for percent of oral bioavailability at 10 […] dose in dogs. The format is ADME, organism-based, Canis lupus familiaris. Conditions: dog, in vivo, read-out: Bioavailabiility.

Sequence of Tissue-type plasminogen activator (P00750 whole entry): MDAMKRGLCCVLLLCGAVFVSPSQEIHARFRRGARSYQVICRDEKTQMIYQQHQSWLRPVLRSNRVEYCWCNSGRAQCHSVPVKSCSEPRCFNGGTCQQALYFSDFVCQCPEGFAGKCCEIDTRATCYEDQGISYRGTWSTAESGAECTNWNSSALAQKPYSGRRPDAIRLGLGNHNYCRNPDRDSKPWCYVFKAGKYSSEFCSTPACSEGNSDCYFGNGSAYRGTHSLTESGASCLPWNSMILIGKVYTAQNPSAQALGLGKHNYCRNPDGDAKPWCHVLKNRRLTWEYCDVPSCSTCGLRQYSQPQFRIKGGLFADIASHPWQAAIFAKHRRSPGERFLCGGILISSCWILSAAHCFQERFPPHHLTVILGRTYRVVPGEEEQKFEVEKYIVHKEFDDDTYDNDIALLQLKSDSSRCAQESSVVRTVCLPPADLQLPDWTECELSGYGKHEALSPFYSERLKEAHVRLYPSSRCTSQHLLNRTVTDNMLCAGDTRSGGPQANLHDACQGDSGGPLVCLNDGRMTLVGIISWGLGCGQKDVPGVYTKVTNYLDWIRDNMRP
Sequence of Plasminogen (P00747 97-580 limits assumed): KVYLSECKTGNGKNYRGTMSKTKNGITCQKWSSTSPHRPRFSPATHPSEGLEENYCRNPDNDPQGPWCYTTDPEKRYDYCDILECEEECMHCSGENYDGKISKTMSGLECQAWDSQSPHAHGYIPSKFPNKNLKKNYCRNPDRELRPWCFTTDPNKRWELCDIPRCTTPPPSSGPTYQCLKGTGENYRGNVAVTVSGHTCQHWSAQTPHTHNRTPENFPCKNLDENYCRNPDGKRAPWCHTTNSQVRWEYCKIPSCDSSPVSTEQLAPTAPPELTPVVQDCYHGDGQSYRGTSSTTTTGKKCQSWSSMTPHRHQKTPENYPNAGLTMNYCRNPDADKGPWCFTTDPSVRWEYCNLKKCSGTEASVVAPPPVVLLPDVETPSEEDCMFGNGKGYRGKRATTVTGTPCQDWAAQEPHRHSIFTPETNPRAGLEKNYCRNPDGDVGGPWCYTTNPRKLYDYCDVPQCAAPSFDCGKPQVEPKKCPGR
Sequence of Plasminogen (P00747 581-810 limits assumed): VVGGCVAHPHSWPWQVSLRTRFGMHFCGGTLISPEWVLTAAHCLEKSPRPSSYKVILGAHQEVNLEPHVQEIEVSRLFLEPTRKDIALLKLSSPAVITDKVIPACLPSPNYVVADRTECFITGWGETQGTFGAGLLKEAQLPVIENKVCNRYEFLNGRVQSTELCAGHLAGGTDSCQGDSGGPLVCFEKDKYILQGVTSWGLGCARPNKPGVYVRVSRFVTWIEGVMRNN
Sequence of Coagulation factor X (P00742 41-179 limits assumed): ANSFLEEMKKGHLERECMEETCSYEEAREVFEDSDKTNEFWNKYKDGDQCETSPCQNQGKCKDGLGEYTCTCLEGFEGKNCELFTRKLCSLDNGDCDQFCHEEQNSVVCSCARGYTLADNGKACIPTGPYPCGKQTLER
Sequence of Coagulation factor X (P00742 235-488 limits assumed): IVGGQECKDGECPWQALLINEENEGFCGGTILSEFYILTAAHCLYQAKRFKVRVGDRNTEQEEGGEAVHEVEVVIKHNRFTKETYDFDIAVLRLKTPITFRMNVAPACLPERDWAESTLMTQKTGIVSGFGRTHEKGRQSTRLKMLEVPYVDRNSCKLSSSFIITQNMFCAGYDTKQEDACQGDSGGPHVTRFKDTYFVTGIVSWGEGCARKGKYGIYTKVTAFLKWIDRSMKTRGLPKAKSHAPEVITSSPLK

What is called Ki is a measure of affinity in units of concentration, obtained from inhibition or displacement. Higher therefore signals a looser hold on the target. In turn, `NN=C(N)c1ccc(C[C@H](NS(=O)(=O)c2ccc3ccccc3c2)C(=O)N(CCO)C2CCCC2)cc1` gave an inhibition constant Ki on Prothrombin [1] of 7040 nM.
Still for that read-out and setting: the result for `CCN(C(=O)[C@H](Cc1ccc(C(=N)NN)cc1)NS(=O)(=O)c1ccc2ccccc2c1)C1CCCC1` reads 4 nM; that for `N=C(NN)c1ccc(C[C@H](NS(=O)(=O)c2ccc3ccccc3c2)C(=O)N2CCCCCC2)cc1`, 1470 nM.
A word on the half-life: it is how long it takes for the measured level to halve. A lower half-life goes with rapid decline. For `CN(C(=O)[C@H](Cc1ccc(C(=N)NN)cc1)NS(=O)(=O)c1ccc2ccccc2c1)C1CCCC1`, the Ki stood at 0.38 nM on Prothrombin [2]; 1100 nM on Coagulation factor X; 27200 nM in data set [3]; 47900 nM on Plasminogen; 1.1 nM at Prothrombin [1]. Also, the half-life in data set [4] amounted to 1.87 h. In addition, in data set [5], the bioavailability is 58%.
